Test results taken from patent US20230027066A1 (Urovant Sciences GmbH, priority 2019, published 2023).

Test system: men and women with overactive bladder
Assay: Phase 3 study of vibegron 75 mg vs placebo and tolterodine ER 4 mg, 12 weeks, efficacy (voiding and urine volume diary)
Assay type: in vivo, human
Conditions: for Patients with at Least 75% Reduction in Total Incontinence, Adjusted (%) / Patients with at Least 75% Reduction in Total Incontinence, Adjusted n / Patients with at Least 75% Reduction in Total Incontinence, Unadjusted (%) / Patients with at Least 75% Reduction in Total Incontinence, Unadjusted n / Total Incontinence 75% responders, Active - Placebo CMH Difference: FAS-I
Method: Enrollment of patients included individuals with OAB Wet (those with UUI, the involuntary loss of urine accompanied by urgency) and OAB Dry (those without UUI). A total of 1,518 patients were randomized across 215 study sites into one of three groups for a 12-week treatment period.
The study consisted of a Screening Period (1 to 5 weeks), a single-blind Run-in Period (2 weeks), a randomized double-blind Treatment Period (12 weeks), and a Follow-up Period (4 weeks).
Tolterodine ER 4 mg was the active control. […] Between the Baseline and Week 12 Visits, patients had study assessments at Week 4 and Week 8.
The Patient Voiding Diary was used by participants (via the eDiary or paper Diary) to record the frequency of daily OAB symptoms including all micturitions, urgency, incontinence, and main reason for incontinence by selecting the respective box for each symptom occurring during the course of a given day and night.
Urine volume data were collected separately by patients using the Urine Volume component of the eDiary, or the paper Urine Volume Chart. The Urine Volume Chart is a tool used in clinical practice and clinical investigation to assess voiding functions over a 24-hour period and is regarded as a useful instrument in the investigation of patients with voiding symptoms. Urine volume may be collected during any one (1) of the 7 Diary Days prior to the visit, and it should be recorded for ˜24 hours starting from the time the patient gets up for the day and continues until the time the patient gets up for the day on the next day.
For the purpose of this study, the number of micturitions was defined as the number of times a patient has voided in the toilet as indicated on the Patient Voiding Diary. Average daily micturitions were calculated using the daily entries in the Patient Voiding Diary, which was completed over the 7 days prior to each study visit. Average daily number of micturitions were calculated as the total number of micturitions that occurred on a Complete Diary Day divided by the number of Complete Diary Days in the Patient Voiding Diary. A complete diary day required confirmation by the patient in the Patient Voiding Diary that all voids and leakages had been recorded for the diary day. Baseline was defined as the average number of micturitions occurring during the last evaluable diary prior to the Baseline Visit.
The number of UUI episodes was defined as the number of times a patient had checked “urge” as the reason for accidental urine leakage. Average daily UUI episodes at each study visit were calculated in the same manner as described above for the micturition endpoint. The UUI endpoint were analyzed using only OAB Wet patients.
For the analysis of the co-primary endpoints (change from baseline in average number of daily micturitions at Week 12 and change from baseline in average number of daily urge urinary incontinence episodes at Week 12, and placebo adjustment of each), a mixed model for repeated measure (MMRM) with restricted maximum likelihood estimation was used. This model corrects for dropout and accounts for the fact that measurements taken on the same patient over time tend to be correlated by using all available information on patients within the same covariate set to derive an estimate of the treatment effect for a dropout-free population. The analysis model for each efficacy endpoint includes terms for treatment, visit, OAB Type (Wet vs Dry), Sex (Female vs Male), Region (US vs Rest of World), baseline score, and interaction of visit by treatment.
Primary inferences were drawn from treatment differences for the changes from baseline derived from the MMRM models at Week 12. As part of secondary objectives, the treatment differences for each post baseline visit were also derived using the same MMRM model. […]

[1] = subjects with prior ACH use, vibegron 75 mg, Week 12
[2] = vibegron 75 mg or tolterodine ER 4 mg
[3] = vibegron 75 mg or tolterodine ER 4 mg once daily
[4] = vibegron 75 mg or tolterodine ER 4 mg once daily, OAB Wet
[5] = vibegron 75 mg or tolterodine ER 4 mg, OAB Wet

## O=C(Nc1ccc(C[C@@H]2CC[C@H]([C@H](O)c3ccccc3)N2)cc1)[C@@H]1CCc2nccc(=O)n21 [Vibegron, (6S)-N-[4-[[(2S,5R)−5-[(R)-hydroxy(phenyl)methyl]pyrrolidin−2-yl]methyl]phenyl]−4-oxo−7,8-dihydro−6H-pyrrolo[1,2-a]pyrimidine−6-carboxamide]
Week 12, subpopulation Age ≥65 years
  UUI Episodes, change at Week 12, mean (SD): −1.94 (2.50)
Week 12, subpopulation Age ≥65 years, posthoc analysis
  Daily Urgency, change at Week 12: −2.7
Week 12, ≥65 yrs
  Micturitions: Week 12 CFB Mean (descriptive statistics): −2.10
Baseline to Week 2
  Patients with at Least 75% Reduction in Total Incontinence, Adjusted (%): 22.1%
  Patients with at Least 75% Reduction in Total Incontinence, Adjusted n: 89
  Patients with at Least 75% Reduction in Total Incontinence, Unadjusted (%): 23.6%
  Patients with at Least 75% Reduction in Total Incontinence, Unadjusted n: 95
  Total Incontinence 75% responders, Active - Placebo CMH Difference: 9.3
Baseline to Week 4
  Patients with at Least 75% Reduction in Total Incontinence, Adjusted (%): 31.5%
  Patients with at Least 75% Reduction in Total Incontinence, Adjusted n: 127
  Patients with at Least 75% Reduction in Total Incontinence, Unadjusted (%): 34.5%
  Patients with at Least 75% Reduction in Total Incontinence, Unadjusted n: 139
  Total Incontinence 75% responders, Active - Placebo CMH Difference: 11.8
Baseline to Week 8
  Patients with at Least 75% Reduction in Total Incontinence, Adjusted (%): 42.0%
  Patients with at Least 75% Reduction in Total Incontinence, Adjusted n: 169
  Patients with at Least 75% Reduction in Total Incontinence, Unadjusted (%): 43.7%
  Patients with at Least 75% Reduction in Total Incontinence, Unadjusted n: 176
  Total Incontinence 75% responders, Active - Placebo CMH Difference: 14.7
Baseline to Week 12
  Patients with at Least 75% Reduction in Total Incontinence, Adjusted (%): 47.3%
  Patients with at Least 75% Reduction in Total Incontinence, Adjusted n: 191
  Patients with at Least 75% Reduction in Total Incontinence, Unadjusted (%): 50.1%
  Patients with at Least 75% Reduction in Total Incontinence, Unadjusted n: 202
  Total Incontinence 75% responders, Active - Placebo CMH Difference: 15.8
Subgroup Age <65 years, vibegron 75 mg or tolterodine ER 4 mg
  UUI, Week 12 LS mean change from baseline (placebo adjusted) (95% CI): −0.5 (−0.9 to −0.1)
Subgroup Age ≥65 years, vibegron 75 mg or tolterodine ER 4 mg
  UUI, Week 12 LS mean change from baseline (placebo adjusted) (95% CI): −0.8 (−1.2 to −0.3)
Subgroup Age ≥75 years (posthoc analysis), vibegron 75 mg or tolterodine ER 4 mg
  UUI, Week 12 LS mean change from baseline (placebo adjusted) (95% CI): −1.6 (−2.4 to −0.8)
Subgroup Females, vibegron 75 mg or tolterodine ER 4 mg
  UUI, Week 12 LS mean change from baseline (placebo adjusted) (95% CI): −0.7 (−1.0 to −0.4)
Subgroup Males, vibegron 75 mg or tolterodine ER 4 mg
  UUI, Week 12 LS mean change from baseline (placebo adjusted) (95% CI): −0.1 (−0.9 to 0.8)
Subgroup Non-White, vibegron 75 mg or tolterodine ER 4 mg
  UUI, Week 12 LS mean change from baseline (placebo adjusted) (95% CI): 0.0 (−0.6 to 0.7)
Subgroup Region: Non-US, vibegron 75 mg or tolterodine ER 4 mg
  UUI, Week 12 LS mean change from baseline (placebo adjusted) (95% CI): −1.1 (−1.8 to −0.3)
Subgroup Region: US, vibegron 75 mg or tolterodine ER 4 mg
  UUI, Week 12 LS mean change from baseline (placebo adjusted) (95% CI): −0.5 (−0.8 to −0.2)
Subgroup White, vibegron 75 mg or tolterodine ER 4 mg
  UUI, Week 12 LS mean change from baseline (placebo adjusted) (95% CI): −0.8 (−1.1 to −0.4)
[1]
  decrease in average number of UUI episodes in 24 hours, times the decrease with placebo: about 1.75 times
  decrease in average number of micturitions in 24 hours, more than the decrease with placebo: about 0.7
Subjects with prior B3 use, vibegron 75 mg, Week 12
  decrease in average number of micturitions in 24 hours, more than the decrease with placebo: about 2.9
Vibegron 75 mg
  total daily incontinence, placebo adjusted, week 2: −0.7
[2]
  average volume voided, placebo-adjusted mean change from baseline, week 12: 21.2 mL
  placebo-adjusted mean total daily incontinence episodes, week 12: −0.7 episodes
  proportion of patients (UUI responders) with 75% or more reduction in daily UUI episodes, week 12: 49.3%
[3]
  Micturitions, active-placebo LS mean difference, Week 2: −0.5
  Micturitions, active-placebo LS mean difference, Week 4: −0.6
  Micturitions, active-placebo LS mean difference, Week 8: −0.6
  Micturitions, active-placebo LS mean difference, Week 12: −0.5
  Micturitions, average daily number, Week 2 mean: 10.18
  Micturitions, average daily number, Week 4 mean: 9.84
  Micturitions, average daily number, Week 8 mean: 9.53
  Micturitions, average daily number, Week 12 mean: 9.32
  Micturitions, change from baseline LS mean, Week 2: −0.8
  Micturitions, change from baseline LS mean, Week 4: −1.1
  Micturitions, change from baseline LS mean, Week 8: −1.4
  Micturitions, change from baseline LS mean, Week 12: −1.8
[4]
  UUI episodes, active-placebo LS mean difference, Week 2: −0.6
  UUI episodes, active-placebo LS mean difference, Week 4: −0.7
  UUI episodes, active-placebo LS mean difference, Week 8: −0.6
  UUI episodes, average daily number, Week 2 mean: 2.03
  UUI episodes, average daily number, Week 4 mean: 1.77
  UUI episodes, average daily number, Week 8 mean: 1.65
  UUI episodes, average daily number, Week 12 mean: 1.46
  UUI episodes, change from baseline LS mean, Week 2: −1.4
  UUI episodes, change from baseline LS mean, Week 4: −1.7
  UUI episodes, change from baseline LS mean, Week 8: −1.8
  UUI episodes, change from baseline LS mean, Week 12: −2.0
[5]
  Estimated incidence of subjects with 75% decrease from baseline in UUI episodes, Week 2: 24.3
  Estimated incidence of subjects with 75% decrease from baseline in UUI episodes, Week 4: 26.6
  Estimated incidence of subjects with 75% decrease from baseline in UUI episodes, Week 8: 41.3
  Estimated incidence of subjects with 75% decrease from baseline in UUI episodes, Week 12: 52.7
  First 75% reduction in UUI episodes, Events/Censored, Week 2: 98/305
  First 75% reduction in UUI episodes, Events/Censored, Week 4: 107/296
  First 75% reduction in UUI episodes, Events/Censored, Week 8: 166/237
  First 75% reduction in UUI episodes, Events/Censored, Week 12: 210/193
  Overall time to first 75% decrease in UUI episodes, 25th percentile: 3.9 weeks
  Overall time to first 75% decrease in UUI episodes, 75th percentile: 13.1 weeks
  Overall time to first 75% decrease in UUI episodes, median (95% CI): 8.4 (8.1 to 12.1) weeks
  Time to first 75% decrease in UUI episodes, Events/Censored (overall): 239/164
Vibegron 75 mg, after 12 weeks
  total daily incontinence, mean change from baseline (reduction): 2.3 episodes
Vibegron 75 mg/day, FIG. 4
  statistically significant onset of action, reduction in urge urinary incontinence (UUI): 2 weeks
Vibegron 75 mg/day, FIG. 5
  statistically significant onset of action, reduction in micturitions: 2 weeks
Vibegron 75 mg/day, FIG. 6
  statistically significant onset of action, reduction in urgency episodes: 2 weeks
Vibegron 75 mg/day, FIG. 7
  statistically significant onset of action, urge incontinence responder rate: 2 weeks
Vibegron 75 mg/day, FIG. 9
  statistically significant onset of action, reductions in total incontinence episodes: 2 weeks
Vibegron 75 mg/day, FIG. 10
  statistically significant onset of action, improvement in volume voided: 2 weeks
